The NIST ThermoML archive (doi:10.1021/je300590v)

Test: xn = mol fraction of the nth substance listed
Conditions: Vibrating tube method

[Ar] [argon] + O=C=O
mass density [kg/m3]
Conditions | x2 = 0.9276 | x2 = 0.9605
273.15 K, 1000 kPa, Gas | – | 22.5
273.15 K, 1001 kPa, Gas | 21.2 | –
273.15 K, 2000 kPa, Gas | – | 46.1
273.15 K, 2001 kPa, Gas | 44.2 | –
273.15 K, 3000 kPa, Gas | – | 75.5
273.15 K, 3001 kPa, Gas | 72.9 | –
273.15 K, 3600 kPa, Gas | – | 106.3
273.15 K, 3800 kPa, Gas | 104.5 | –
273.15 K, 4901 kPa, Liquid | – | 893.5
273.15 K, 5001 kPa, Liquid | – | 894.8
273.15 K, 5900 kPa, Liquid | 881.4 | –
273.15 K, 6000 kPa, Liquid | 880.2 | –
273.15 K, 6001 kPa, Liquid | – | 905.7
273.15 K, 7000 kPa, Liquid | – | 915.5
273.15 K, 7001 kPa, Liquid | 886.5 | –
273.15 K, 8001 kPa, Liquid | 898 | 924
273.15 K, 9001 kPa, Liquid | 907.8 | –
273.15 K, 9002 kPa, Liquid | – | 932.1
273.15 K, 10001 kPa, Liquid | 917.3 | –
273.15 K, 10002 kPa, Liquid | – | 939.5
273.15 K, 11001 kPa, Liquid | 925.5 | –
273.15 K, 11002 kPa, Liquid | – | 946.4
273.15 K, 12000 kPa, Liquid | 933.4 | 952.9
273.15 K, 13000 kPa, Liquid | 940.6 | 959.1
273.15 K, 14000 kPa, Liquid | – | 965
273.15 K, 14002 kPa, Liquid | 947.4 | –
273.15 K, 15000 kPa, Liquid | 953.8 | –
273.15 K, 15001 kPa, Liquid | – | 970.6
273.15 K, 16001 kPa, Liquid | 959.9 | 975.9
273.15 K, 17000 kPa, Liquid | 965.7 | –
273.15 K, 17002 kPa, Liquid | – | 981
273.15 K, 18001 kPa, Liquid | 971.2 | 986
273.15 K, 19001 kPa, Liquid | 976.5 | –
273.15 K, 19003 kPa, Liquid | – | 990.8
273.15 K, 20000 kPa, Liquid | 981.5 | –
273.15 K, 20001 kPa, Liquid | – | 995.3
283.15 K, 1001 kPa, Gas | 20.1 | 20.9
283.15 K, 2000 kPa, Gas | 42.2 | 43.1
283.15 K, 3001 kPa, Gas | 68.4 | 69.6
283.15 K, 4000 kPa, Gas | – | 104.2
283.15 K, 4001 kPa, Gas | 101.2 | –
283.15 K, 4701 kPa, Gas | – | 144.6
283.15 K, 5000 kPa, Gas | 151.6 | –
283.15 K, 5010 kPa, Gas | 153 | –
283.15 K, 5060 kPa, Gas | 161.6 | –
283.15 K, 6000 kPa, Liquid | – | 827.6
283.15 K, 7001 kPa, Liquid | – | 844.5
283.15 K, 7301 kPa, Liquid | 801.8 | –
283.15 K, 8001 kPa, Liquid | 816.3 | 859.1
283.15 K, 9001 kPa, Liquid | 833.9 | 871.9
283.15 K, 10001 kPa, Liquid | 848.6 | 883.2
283.15 K, 11001 kPa, Liquid | 861.6 | 893.1
283.15 K, 12001 kPa, Liquid | 873 | 902.4
283.15 K, 13000 kPa, Liquid | – | 910.9
283.15 K, 13002 kPa, Liquid | 883.5 | –
283.15 K, 14000 kPa, Liquid | 892.6 | –
283.15 K, 14001 kPa, Liquid | – | 918.7
283.15 K, 15001 kPa, Liquid | 901.4 | –
283.15 K, 15003 kPa, Liquid | – | 926
283.15 K, 16001 kPa, Liquid | 909.4 | 932.8
283.15 K, 17000 kPa, Liquid | – | 939.4
283.15 K, 17001 kPa, Liquid | 916.9 | –
283.15 K, 18000 kPa, Liquid | 924.1 | 945.6
283.15 K, 19001 kPa, Liquid | 930.8 | –
283.15 K, 19002 kPa, Liquid | – | 951.6
283.15 K, 20001 kPa, Liquid | 937.2 | –
283.15 K, 20003 kPa, Liquid | – | 957.3
293.15 K, 1000 kPa, Gas | 19.9 | –
293.15 K, 1001 kPa, Gas | – | 20.4
293.15 K, 2000 kPa, Gas | – | 41
293.15 K, 2001 kPa, Gas | 40.6 | –
293.15 K, 3000 kPa, Gas | 64.4 | –
293.15 K, 3001 kPa, Gas | – | 65
293.15 K, 4000 kPa, Gas | 92.6 | –
293.15 K, 4001 kPa, Gas | – | 94.2
293.15 K, 5000 kPa, Gas | 128.2 | –
293.15 K, 5001 kPa, Gas | – | 132.6
293.15 K, 6000 kPa, Gas | – | 198
293.15 K, 6001 kPa, Gas | 179 | –
293.15 K, 6601 kPa, Gas | 253.1 | –
293.15 K, 7151 kPa, Liquid | – | 728.4
293.15 K, 8002 kPa, Liquid | – | 765.2
293.15 K, 8201 kPa, Liquid | 680.3 | –
293.15 K, 9001 kPa, Liquid | 726.1 | 790.8
293.15 K, 10001 kPa, Liquid | 760.3 | 811.1
293.15 K, 11001 kPa, Liquid | 785 | 827.5
293.15 K, 12000 kPa, Liquid | – | 841.6
293.15 K, 12002 kPa, Liquid | 804.5 | –
293.15 K, 13000 kPa, Liquid | – | 853.5
293.15 K, 13003 kPa, Liquid | 820.2 | –
293.15 K, 14001 kPa, Liquid | – | 864.3
293.15 K, 14002 kPa, Liquid | 834.1 | –
293.15 K, 15000 kPa, Liquid | 846.1 | –
293.15 K, 15001 kPa, Liquid | – | 874.3
293.15 K, 16001 kPa, Liquid | 857.1 | –
293.15 K, 16002 kPa, Liquid | – | 883.4
293.15 K, 17002 kPa, Liquid | 867.1 | 891.9
293.15 K, 18000 kPa, Liquid | 876.3 | –
293.15 K, 18001 kPa, Liquid | – | 899.7
293.15 K, 19001 kPa, Liquid | 884.9 | 906.9
293.15 K, 20001 kPa, Liquid | 892.9 | 913.8
